± gives the expanded uncertainty stated by the source.
Experiment: Solid-liquid equilibrium temperature
Details: Crystal

Row | SMILES | Solid-liquid equilibrium temperature (100000 kPa) [K] | Solid-liquid equilibrium temperature (200000 kPa) [K] | Solid-liquid equilibrium temperature (300000 kPa) [K] | Solid-liquid equilibrium temperature (400000 kPa) [K] | Solid-liquid equilibrium temperature (500000 kPa) [K] | Solid-liquid equilibrium temperature (600000 kPa) [K] | Solid-liquid equilibrium temperature (700000 kPa) [K] | Solid-liquid equilibrium temperature (800000 kPa) [K] | Solid-liquid equilibrium temperature (900000 kPa) [K] | Solid-liquid equilibrium temperature (1000000 kPa) [K] | Solid-liquid equilibrium temperature (1500000 kPa) [K] | Solid-liquid equilibrium temperature (2000000 kPa) [K] | Solid-liquid equilibrium temperature (2500000 kPa) [K] | Solid-liquid equilibrium temperature (3000000 kPa) [K] | Solid-liquid equilibrium temperature (3500000 kPa) [K]
1 | O=[N+]([O-])c1ccccc1 [nitrobenzene] | 299.74 ± 1.5 | 320.77 ± 1.7 | 340.02 ± 1.9 | 360.41 ± 2.1 | 378.61 ± 2.3 | 395.9 ± 2.4 | 412.3 ± 2.6 | 427.24 ± 2.7 | 442.98 ± 2.9 | 462.61 ± 10 | 516.38 ± 10 | 565.62 ± 10 | 595.88 ± 10 | 614.38 ± 10 | –
2 | Brc1ccccc1 [bromobenzene] | 259.05 ± 1.3 | 276.45 ± 1.5 | 292.45 ± 1.7 | 310.05 ± 1.8 | 322.55 ± 1.9 | 336.15 ± 2 | 349.25 ± 2.2 | 361.85 ± 2.3 | 374.75 ± 2.4 | 382.85 ± 10 | 430.05 ± 10 | 473.67 ± 10 | 514.22 ± 10 | 553.94 ± 10 | 587.21 ± 10
3 | Clc1ccccc1 [chlorobenzene] | 246.4 ± 1.2 | 263.03 ± 1.4 | 273.46 ± 1.5 | 288.44 ± 1.7 | 301.03 ± 1.8 | 315.62 ± 1.9 | 325.56 ± 2 | 336.87 ± 2.1 | 348.81 ± 2.2 | 354.76 ± 10 | 403.44 ± 10 | 440.81 ± 10 | 473.28 ± 10 | 503.63 ± 10 | 530.87 ± 10
4 | c1ccccc1 [benzene] | 306.44 ± 1.6 | 329.93 ± 1.8 | 351.25 ± 2 | 370.85 ± 2.2 | 389.07 ± 2.3 | 406.15 ± 2.5 | 422.25 ± 2.6 | 437.52 ± 2.8 | 452.06 ± 2.9 | 465.96 ± 3.1 | 538.73 ± 10 | 584.85 ± 10 | 625.73 ± 10 | 663.67 ± 10 | –
